Measurements: patent publication US20090047672A1, “Telomerase RNA Subunit and Methods of Use Thereof” (priority 2005, published 2009)

Test system: H2AX
Assay: Immunoblotting of DNA damage response (H2AX phosphorylation)
Type: cell-based, human
Conditions: BJ fibroblasts expressing control shRNA, 10 μM for 4 hrs
Description: The antibodies used in this study included: rabbit anti-H2AX (Novus); rabbit anti—H2AX (Upstate Biotechnology); rabbit anti-H2B (Upstate Biotechnology); mouse anti-H3 (Upstate Biotechnology); rabbit anti-H4 (Upstate Biotechnology); rabbit anti-macro H2A.1 (Upstate Biotechnology); rabbit anti-dimethyl H3 (K9) (Upstate Biotechnology); rabbit anti-acetyl H3 (Lys9) (Upstate Biotechnology); rabbit anti-acetyl H4 (K12) (Upstate Biotechnology); goat anti-phospho-specific BRCA1 (Ser1497) (Santa Cruz); rabbit anti-ATM-pS1981 (Rockland); rabbit anti-ATM-S1981 (Rockland); and mouse anti-p53 (Ab6) (Oncogene). Cells were lysed in RIPA buffer (12.5 mM NaPO4, pH7.2, 2 mM EDTA, 50 mM NaF, 1.25% NP-40, 1.25% SDS, 0.1 mM DTT) except when specific conditions are noted. For extraction under low salt conditions, cells were lysed in a buffer comprised of 20 mM Tris-HCl, pH 7.4, 150 mM NaCl, 0.1% NP40, 0.1 mM DTT. For high salt condition extraction, cells were lysed in a buffer composed of 20 mM Tris-HCl, pH 7.4, 500 mM NaCl, 0.5% NP40, 0.1 mM DTT. For acid precipitation of histones, cells were homogenized in 0.2 N H2SO4 and centrifuged. Histones were precipitated by adding ¼ volume of 100% (w/v) TCA. The pellets were suspended in 100% ethanol and centrifuged again at 13,000×g. 10 μg of protein was subjected to immunoblotting.

SMILES: CCc1c2c(nc3ccc(OC(=O)N4CCC(N5CCCCC5)CC4)cc13)-c1cc3c(c(=O)n1C2)COC(=O)[C@]3(O)CC [irinotecan]
- Phosphorylation of H2AX after treatment with chemotherapeutic agent: induced phosphorylation of H2AX
